Experimental data taken from PubChem BioAssay (NCI).
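Growth conditions: 96-well plates. Treatment: test compound, 48 hours, 5 concentrations. Analysis: linear interpolation between bracketing concentrations; unreached endpoints set to highest concentration. At the TGI there is no net growth.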

What was measured:
Assay in all cases: DTP human tumour cell line panel, 48 h
DMS 114 small cell lung = test system: DMS 114 small cell lung
KM12 colon = test system: KM12 colon
UO-31 renal = test system: UO-31 renal
MOLT-4 leukemia = test system: MOLT-4 leukemia
HCC-2998 colon = test system: HCC-2998 colon
ACHN renal = test system: ACHN renal
HL-60(TB) leukemia = test system: HL-60(TB) leukemia
SF-268 CNS = test system: SF-268 CNS
UACC-257 melanoma = test system: UACC-257 melanoma
SK-OV-3 ovarian = test system: SK-OV-3 ovarian
786-0 renal = test system: 786-0 renal
MALME-3M melanoma = test system: MALME-3M melanoma
OVCAR-4 ovarian = test system: OVCAR-4 ovarian
SR leukemia = test system: SR leukemia
DMS 273 small cell lung = test system: DMS 273 small cell lung
SK-MEL-5 melanoma = test system: SK-MEL-5 melanoma
EKVX NSCLC = test system: EKVX NSCLC
LOX IMVI melanoma = test system: LOX IMVI melanoma
NCI-H522 lung = test system: NCI-H522 lung
HOP-18 NSCLC = test system: HOP-18 NSCLC
HCT-15 colon = test system: HCT-15 colon
NCI-H23 lung = test system: NCI-H23 lung
COLO 205 colon = test system: COLO 205 colon
OVCAR-3 ovarian = test system: OVCAR-3 ovarian
SF-539 CNS = test system: SF-539 CNS
NCI-H460 lung = test system: NCI-H460 lung
SN12C renal = test system: SN12C renal
SNB-75 CNS = test system: SNB-75 CNS
M14 melanoma = test system: M14 melanoma
SF-295 CNS = test system: SF-295 CNS
IGROV1 ovarian = test system: IGROV1 ovarian
LXFL 529 NSCLC = test system: LXFL 529 NSCLC
CCRF-CEM leukemia = test system: CCRF-CEM leukemia
CAKI-1 renal = test system: CAKI-1 renal
HOP-92 NSCLC = test system: HOP-92 NSCLC
SNB-19 CNS = test system: SNB-19 CNS
A549 NSCLC = test system: A549 NSCLC
UACC-62 melanoma = test system: UACC-62 melanoma
OVCAR-8 ovarian = test system: OVCAR-8 ovarian
KM20L2 colon = test system: KM20L2 colon
M19-MEL melanoma = test system: M19-MEL melanoma
HCT-116 colon = test system: HCT-116 colon
RXF-631 renal = test system: RXF-631 renal
HT29 colon = test system: HT29 colon
HOP-62 NSCLC = test system: HOP-62 NSCLC
TK-10 renal = test system: TK-10 renal
SK-MEL-28 melanoma = test system: SK-MEL-28 melanoma
SW-620 colon = test system: SW-620 colon
RPMI-8226 leukemia = test system: RPMI-8226 leukemia
NCI-H226 lung = test system: NCI-H226 lung
RXF 393 renal = test system: RXF 393 renal
SNB-78 CNS = test system: SNB-78 CNS
DLD-1 colon = test system: DLD-1 colon
K-562 leukemia = test system: K-562 leukemia
OVCAR-5 ovarian = test system: OVCAR-5 ovarian
U251 CNS = test system: U251 CNS
SK-MEL-2 melanoma = test system: SK-MEL-2 melanoma
A498 renal = test system: A498 renal

O=C(Nc1nc(=S)[nH][nH]1)C(=O)C1C(=O)Nc2ccccc2S1=O (stereo not drawn)
TGI (DMS 114 small cell lung): > 100 µM | TGI (KM12 colon): > 100 µM | TGI (UO-31 renal): > 100 µM | TGI (MOLT-4 leukemia): > 100 µM | TGI (HCC-2998 colon): > 100 µM | TGI (ACHN renal): > 100 µM | TGI (HL-60(TB) leukemia): > 100 µM | TGI (SF-268 CNS): > 100 µM | TGI (UACC-257 melanoma): > 100 µM | TGI (SK-OV-3 ovarian): > 100 µM | TGI (786-0 renal): > 100 µM | TGI (MALME-3M melanoma): > 100 µM | TGI (OVCAR-4 ovarian): > 100 µM | TGI (SR leukemia): > 100 µM | TGI (DMS 273 small cell lung): > 100 µM | TGI (SK-MEL-5 melanoma): > 100 µM | TGI (EKVX NSCLC): > 100 µM | TGI (LOX IMVI melanoma): > 100 µM | TGI (NCI-H522 lung): > 100 µM | TGI (HOP-18 NSCLC): > 100 µM | TGI (HCT-15 colon): > 100 µM | TGI (NCI-H23 lung): > 100 µM | TGI (COLO 205 colon): > 100 µM | TGI (OVCAR-3 ovarian): > 100 µM | TGI (SF-539 CNS): > 100 µM | TGI (NCI-H460 lung): > 100 µM | TGI (SN12C renal): > 100 µM | TGI (SNB-75 CNS): > 100 µM | TGI (M14 melanoma): > 100 µM | TGI (SF-295 CNS): > 100 µM | TGI (IGROV1 ovarian): > 100 µM | TGI (LXFL 529 NSCLC): > 100 µM | TGI (CCRF-CEM leukemia): > 100 µM | TGI (CAKI-1 renal): > 100 µM | TGI (HOP-92 NSCLC): > 100 µM | TGI (SNB-19 CNS): > 100 µM | TGI (A549 NSCLC): > 100 µM | TGI (UACC-62 melanoma): > 100 µM | TGI (OVCAR-8 ovarian): > 100 µM | TGI (KM20L2 colon): > 100 µM | TGI (M19-MEL melanoma): > 100 µM | TGI (HCT-116 colon): > 100 µM | TGI (RXF-631 renal): > 100 µM | TGI (HT29 colon): > 100 µM | TGI (HOP-62 NSCLC): > 100 µM | TGI (TK-10 renal): > 100 µM | TGI (SK-MEL-28 melanoma): > 100 µM | TGI (SW-620 colon): > 100 µM

CC1(C)CCCC2(C)[C@@H]1CC[C@@]13CC(=O)[C@@](C)(CC[C@@H]21)C3 (stereo partly drawn)
TGI (DMS 114 small cell lung): > 100 µM | TGI (RPMI-8226 leukemia): > 100 µM | TGI (KM12 colon): > 100 µM | TGI (UO-31 renal): > 100 µM | TGI (MOLT-4 leukemia): > 100 µM | TGI (HCC-2998 colon): > 100 µM | TGI (ACHN renal): > 100 µM | TGI (HL-60(TB) leukemia): > 100 µM | TGI (SF-268 CNS): > 100 µM | TGI (UACC-257 melanoma): 97.3 µM | TGI (SK-OV-3 ovarian): > 100 µM | TGI (NCI-H226 lung): > 100 µM | TGI (786-0 renal): > 100 µM | TGI (MALME-3M melanoma): > 100 µM | TGI (OVCAR-4 ovarian): > 100 µM | TGI (SR leukemia): > 100 µM | TGI (DMS 273 small cell lung): > 100 µM | TGI (SK-MEL-5 melanoma): > 100 µM | TGI (RXF 393 renal): 62.8 µM | TGI (SNB-78 CNS): > 100 µM | TGI (LOX IMVI melanoma): > 100 µM | TGI (DLD-1 colon): > 100 µM | TGI (NCI-H522 lung): 82.5 µM | TGI (HCT-15 colon): > 100 µM | TGI (NCI-H23 lung): > 100 µM | TGI (COLO 205 colon): > 100 µM | TGI (OVCAR-3 ovarian): > 100 µM | TGI (SF-539 CNS): > 100 µM | TGI (NCI-H460 lung): > 100 µM | TGI (SN12C renal): > 100 µM | TGI (SNB-75 CNS): > 100 µM | TGI (M14 melanoma): > 100 µM | TGI (SF-295 CNS): > 100 µM | TGI (K-562 leukemia): > 100 µM | TGI (IGROV1 ovarian): > 100 µM | TGI (LXFL 529 NSCLC): > 100 µM | TGI (CCRF-CEM leukemia): > 100 µM | TGI (CAKI-1 renal): > 100 µM | TGI (HOP-92 NSCLC): > 100 µM | TGI (OVCAR-5 ovarian): > 100 µM | TGI (SNB-19 CNS): > 100 µM | TGI (A549 NSCLC): > 100 µM | TGI (UACC-62 melanoma): > 100 µM | TGI (OVCAR-8 ovarian): > 100 µM | TGI (KM20L2 colon): > 100 µM | TGI (M19-MEL melanoma): 89.6 µM | TGI (HCT-116 colon): > 100 µM | TGI (RXF-631 renal): > 100 µM | TGI (HT29 colon): 76.3 µM | TGI (HOP-62 NSCLC): > 100 µM | TGI (U251 CNS): > 100 µM | TGI (TK-10 renal): > 100 µM | TGI (SK-MEL-28 melanoma): > 100 µM | TGI (SW-620 colon): > 100 µM

CC(C)[C@@H](C)CC[C@@H](C)C1CC=C2[C@@H]3CCC4C[C@@H](O[Si](C)(C)C(C)(C)C)CC[C@]4(C)C3CC[C@@]21C (stereo partly drawn)
TGI (DMS 114 small cell lung): > 100 µM | TGI (RPMI-8226 leukemia): > 100 µM | TGI (KM12 colon): > 100 µM | TGI (UO-31 renal): > 100 µM | TGI (MOLT-4 leukemia): > 100 µM | TGI (HCC-2998 colon): > 100 µM | TGI (SK-MEL-2 melanoma): > 100 µM | TGI (ACHN renal): > 100 µM | TGI (HL-60(TB) leukemia): > 100 µM | TGI (SF-268 CNS): > 100 µM | TGI (UACC-257 melanoma): > 100 µM | TGI (SK-OV-3 ovarian): > 100 µM | TGI (NCI-H226 lung): > 100 µM | TGI (786-0 renal): > 100 µM | TGI (MALME-3M melanoma): > 100 µM | TGI (OVCAR-4 ovarian): > 100 µM | TGI (SR leukemia): > 100 µM | TGI (DMS 273 small cell lung): > 100 µM | TGI (SK-MEL-5 melanoma): > 100 µM | TGI (RXF 393 renal): > 100 µM | TGI (SNB-78 CNS): > 100 µM | TGI (EKVX NSCLC): > 100 µM | TGI (A498 renal): > 100 µM | TGI (NCI-H522 lung): > 100 µM | TGI (HOP-18 NSCLC): > 100 µM | TGI (HCT-15 colon): > 100 µM | TGI (COLO 205 colon): > 100 µM | TGI (OVCAR-3 ovarian): > 100 µM | TGI (SF-539 CNS): > 100 µM | TGI (NCI-H460 lung): > 100 µM | TGI (SN12C renal): > 100 µM | TGI (SNB-75 CNS): > 100 µM | TGI (M14 melanoma): > 100 µM | TGI (K-562 leukemia): > 100 µM | TGI (IGROV1 ovarian): > 100 µM | TGI (LXFL 529 NSCLC): > 100 µM | TGI (CCRF-CEM leukemia): > 100 µM | TGI (CAKI-1 renal): > 100 µM | TGI (SNB-19 CNS): > 100 µM | TGI (A549 NSCLC): > 100 µM | TGI (UACC-62 melanoma): > 100 µM | TGI (OVCAR-8 ovarian): > 100 µM | TGI (KM20L2 colon): > 100 µM | TGI (M19-MEL melanoma): > 100 µM | TGI (HCT-116 colon): > 100 µM | TGI (RXF-631 renal): > 100 µM | TGI (HOP-62 NSCLC): > 100 µM | TGI (U251 CNS): > 100 µM | TGI (TK-10 renal): > 100 µM | TGI (SK-MEL-28 melanoma): > 100 µM | TGI (SW-620 colon): > 100 µM
